Like-named read-outs stand apart in the source and are kept apart here. *1 amine or outer side, *2 acyl side, *3 side chain or, on linkers, in order; H or OH if unused. Where a SMILES comes first, the peptide text is derived from it. Bridges are numbered along the chain shown (N, C = ends). [ ]: non-standard residue; d: D form. The star is where a group is joined. X68 = CN([C@@H](Cc1cc(Cl)ccc1-c1cnn(C2CC2)c1)C(=O)[*:2])[*:1]; NMehhhLys(Me) = CN([C@@H](CCCCCCCN(C)[*:3])C(=O)[*:2])[*:1]; X112 = CN([C@@H](Cc1cc(F)ccc1-c1cnn(C)c1)C(=O)[*:2])[*:1]; X22 = CN([C@@H](Cc1cc(Cl)ccc1-c1cnn(C)c1)C(=O)[*:2])[*:1]; NMe(hhhLys) = CN([C@@H](CCCCCCCN[*:3])C(=O)[*:2])[*:1]; X210 = CC(C)=Cc1ccc(Cl)cc1C[C@@H](C(=O)[*:2])N(C)[*:1]; X164 = C=C(C)c1ccc(Cl)cc1C[C@@H](C(=O)[*:2])N(C)[*:1]; Cyclobutanecarbonyl(1-CF3) = O=C(C1(C(F)(F)F)CCC1)*; cBuCO(3,3-F2-1-CF3) = O=C(C1(C(F)(F)F)CC(F)(F)C1)*; NMePhe(2,5-Cl2) = CN[C@@H](Cc1cc(Cl)ccc1Cl)C(=O)O; Pro(trans-4-F) = O=C(O)[C@@H]1C[C@@H](F)CN1; Gly(cPr) = N[C@H](C(=O)O)C1CC1
Columns and labels:
OVCAR3 cells = assay: MTT proliferation assay, OVCAR3; assay type: cell-based; conditions: 5 days compound exposure, 1:3 serial dilution starting at 10 μM;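 also: compound given as an 8- or 10-point series, one day after plating, with exposure covering roughly 3-4 cell doublings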
CyclinE1/CDK2 = target: T1, CyclinE1/CDK2 (Homo sapiens, UniProt P24864); assay: Fluorescence Polarization (FP) competitive binding assay, Cyclin E1/Cdk2;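 also: readings taken after two-hour equilibration at room temperature in HEPES buffer with NaCl, DTT, NP-40 and BSA, IC50 fitted from eight-concentration serial dilution series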
T1 construct: purchased Eurofins, discovery 14-475

NCI-H1048 cells = assay: MTT proliferation assay, NCI-H1048; assay type: cell-based; conditions: 5 days compound exposure, 1:3 serial dilution starting at 10 μM;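 also: Dose-response in 96-well plates over 8 or 10 concentration points, with exposure spanning 3-4 cell doublings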
CyclinA2/CDK2 = target: T2, CyclinA2/CDK2 (Homo sapiens, UniProt P20248); assay: Fluorescence Polarization (FP) competitive binding assay, Cyclin A2/Cdk2;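 also: plates equilibrated two hours at room temperature before polarization reading, IC50 fitted from eight-concentration compound titration curves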
T2 construct: purchased CRELUX Protein Services

CyclinB1/CDK1 = target: T3, CyclinB1/CDK1 (Homo sapiens, UniProt P14635); assay: Fluorescence Polarization (FP) competitive binding assay, Cyclin B1/Cdk1;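 also: fluorescence polarization read after equilibration at room temperature, with IC50 taken from serially diluted dose-response curves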
T3 construct: purchased Eurofins, discovery 14-450

[1] = 10 nM Cyclin E1/Cdk2, 2 nM FAM probe, average of 2-3 independent experiments, read-out: Cyclin E FP IC50
[2] = 8 nM Cyclin A2/Cdk2, 2 nM FAM probe; average of 2-3 independent experiments; read-out: Cyclin A FP IC50
[3] = 10 nM Cyclin B1/Cdk1, 2 nM FAM probe; average of 2-3 independent experiments; read-out: Cyclin B FP IC50

| SMILES | GI50 (OVCAR3 cells) [nM] | IC50 (CyclinE1/CDK2; [1]) [nM] | GI50 (NCI-H1048 cells) [nM] | IC50 (CyclinA2/CDK2; [2]) [nM] | IC50 (CyclinB1/CDK1; [3]) [nM] | IC50 (CyclinE1/CDK2) [nM] | IC50 (CyclinA2/CDK2; read-out: Cyclin A FP IC50; 8 nM Cyclin A2/Cdk2, 2 nM FAM probe; average of 2-3 independent experiments) [nM] | IC50 (CyclinB1/CDK1; read-out: Cyclin B FP IC50; 10 nM Cyclin B1/Cdk1, 2 nM FAM probe; average of 2-3 independent experiments) [nM] |
| --- | --- | --- | --- | --- | --- | --- | --- | --- |
| CC(C)C[C@@H]1NC(=O)[C@@H](N(C)C(=O)[C@@H](NC(=O)[C@@H]2C[C@@H](F)CN2C(=O)C2(C(F)(F)F)CC(F)(F)C2)C2CC2)CC=CCCCCN(C)C(=O)[C@H](Cc2cc(F)ccc2C2=CCCC2)N(C)C1=O [Example 46] | 790 | 350 | 720 | 20 | 20 |  |  |  |
| CC(C)C[C@@H]1NC(=O)[C@@H](N(C)C(=O)[C@H](C)NC(=O)[C@@H]2C[C@@H](F)CN2C(=O)C2(C(F)(F)F)CC(F)(F)C2)CC=CCCCCNC(=O)[C@H](Cc2cc(Cl)ccc2Cl)N(C)C1=O [Example 54] | 700 | 3390 | 470 | 390 | 30 |  |  |  |
| CC(C)C[C@@H]1NC(=O)[C@@H](N(C)C(=O)[C@H](C)NC(=O)[C@@H]2C[C@@H](F)CN2C(=O)C2(C(F)(F)F)CC(F)(F)C2)CCCCCCCNC(=O)[C@H](Cc2cc(Cl)ccc2Cl)N(C)C1=O [Example 55] ({cBuCO(3,3-F2-1-CF3)}-[Pro(trans-4-F)]A[NMe(hhhLys)]L[NMePhe(2,5-Cl2)]; lactam 3-C) | 710 | 3930 | 560 | 700 | 80 |  |  |  |
| CC(=O)N1[C@H]2CC[C@@H]1C=C(c1ccc(F)cc1C[C@H]1C(=O)N(C)CCCCCCC[C@H](N(C)C(=O)[C@@H](NC(=O)[C@@H]3C[C@@H](F)CN3C(=O)C3(C(F)(F)F)CC(F)(F)C3)C3CC3)C(=O)N[C@@H](CC(C)C)C(=O)N1C)C2 [Example 58] | 10 |  | 10 |  |  | 620 | 20 | 20 |
| C=C(C)c1ccc(Cl)cc1C[C@H]1C(=O)NCCCCCCC[C@H](N(C)C(=O)[C@@H](NC(=O)[C@@H]2C[C@@H](F)CN2C(=O)C2(C(F)(F)F)CC(F)(F)C2)C2CC2)C(=O)N[C@@H](CC(C)C)C(=O)N1C [Example 61] ({cBuCO(3,3-F2-1-CF3)}-[Pro(trans-4-F)][Gly(cPr)][NMe(hhhLys)]L[X164]; lactam 3-C) | 40 | 1010 | 20 | 20 | 20 |  |  |  |
| CC(C)=Cc1ccc(Cl)cc1C[C@H]1C(=O)NCCCCCCC[C@H](N(C)C(=O)[C@@H](NC(=O)[C@@H]2C[C@@H](F)CN2C(=O)C2(C(F)(F)F)CC(F)(F)C2)C2CC2)C(=O)N[C@@H](CC(C)C)C(=O)N1C [Example 62] ({cBuCO(3,3-F2-1-CF3)}-[Pro(trans-4-F)][Gly(cPr)][NMe(hhhLys)]L[X210]; lactam 3-C) | 70 | 390 | 60 | 30 | 20 |  |  |  |
| CC(C)C[C@@H]1NC(=O)[C@@H](N(C)C(=O)[C@@H](NC(=O)[C@@H]2C[C@@H](F)CN2C(=O)C2(C(F)(F)F)CC(F)(F)C2)C2CC2)CCCCCCCN(C)C(=O)[C@H](Cc2cc(F)ccc2-c2cnn(C)c2)N(C)C1=O [Example 65] ({cBuCO(3,3-F2-1-CF3)}-[Pro(trans-4-F)][Gly(cPr)][NMehhhLys(Me)]L[X112]; lactam 3-C) | 10 | 270 | 10 | 20 | 20 |  |  |  |
| CC(C)C[C@@H]1NC(=O)[C@@H](N(C)C(=O)[C@@H](NC(=O)[C@@H]2C[C@@H](F)CN2C(=O)C2(C(F)(F)F)CC(F)(F)C2)C2CC2)CCCCCCCNC(=O)[C@H](Cc2cc(Cl)ccc2-c2cnn(C3CC3)c2)N(C)C1=O [Example 67] ({cBuCO(3,3-F2-1-CF3)}-[Pro(trans-4-F)][Gly(cPr)][NMe(hhhLys)]L[X68]; lactam 3-C) | 10 | 500 | 10 | 20 | 20 |  |  |  |
| CC(=O)N1CC=C(c2ccc(Cl)cc2C[C@H]2C(=O)N(C)CCCCCC[C@H](N(C)C(=O)[C@@H](NC(=O)[C@@H]3C[C@@H](F)CN3C(=O)C3(C(F)(F)F)CC(F)(F)C3)C3CC3)C(=O)N[C@@H](CC(C)C)C(=O)N2C)CC1 [Example 74] | 170 | 3620 | 110 | 50 | 20 |  |  |  |
| CC(C)C[C@@H]1NC(=O)[C@@H](N(C)C(=O)[C@@H](NC(=O)[C@@H]2CCCN2C(=O)C2(C(F)(F)F)CCC2)C2CC2)CCCCCCCN(C)C(=O)[C@H](Cc2cc(Cl)ccc2-c2cnn(C)c2)N(C)C1=O [Example 76] ({Cyclobutanecarbonyl(1-CF3)}-P[Gly(cPr)][NMehhhLys(Me)]L[X22]; lactam 3-C) | 120 | 880 | 80 | 20 | 20 |  |  |  |
| CC(C)C[C@@H]1NC(=O)[C@@H](N(C)C(=O)[C@@H](NC(=O)[C@@H]2CCCN2C(=O)C2(C(F)(F)F)CC(F)(F)C2)C2CC2)CCCCCCCN(C)C(=O)[C@H](Cc2cc(Cl)ccc2-c2cnn(C)c2)N(C)C1=O [Example 77] ({cBuCO(3,3-F2-1-CF3)}-P[Gly(cPr)][NMehhhLys(Me)]L[X22]; lactam 3-C) | 70 | 1710 | 60 | 20 | 20 |  |  |  |
| COCn1cc(-c2ccc(Cl)cc2C[C@H]2C(=O)N(C)CCCCC=CC[C@H](N(C)C(=O)[C@@H](NC(=O)[C@@H]3C[C@@H](F)CN3C(=O)C3(C(F)(F)F)CC(F)(F)C3)C3CC3)C(=O)N[C@@H](CC(C)C)C(=O)N2C)cn1 [Example 79] | 40 | 630 | 30 | 50 | 20 |  |  |  |
| CC(C)C[C@H]1NC(=O)[C@H](N(C)C(=O)[C@H](NC(=O)[C@H]2C[C@H](F)CN2C(=O)C2(C#N)CCC2)C2CC2)CCCCCCCN(C)C(=O)[C@@H](Cc2cc(Cl)ccc2-c2cnn(C)c2)N(C)C1=O [Example 82] | 70 | 220 | 30 | 20 | 20 |  |  |  |
| CC(C)C[C@@H]1NC(=O)[C@@H](N(C)C(=O)[C@@H](NC(=O)[C@@H]2C[C@@H](F)CN2C(=O)C2(C(F)(F)F)CCC2)C2CC2)CC=CCCCCN(C)C(=O)[C@H](Cc2cc(F)ccc2-c2cnn(CC(F)F)c2)N(C)C1=O [Example 83] | 10 | 100 | 20 | 40 | 20 |  |  |  |
| CC(C)C[C@@H]1NC(=O)[C@@H](N(C)C(=O)[C@@H](NC(=O)[C@@H]2C[C@@H](F)CN2C(=O)C2(C(F)(F)F)CC(F)(F)C2)C2CC2)CC=CCCCCN(C)C(=O)[C@H](Cc2cc(F)ccc2-c2cnn(C3CCOCC3)c2)N(C)C1=O [Example 84] | 10 | 290 | 20 | 50 | 20 |  |  |  |
| CC(C)C[C@@H]1NC(=O)[C@@H](N(C)C(=O)[C@@H](NC(=O)[C@@H]2C[C@@H](F)CN2C(=O)C2(C(F)(F)F)CC(F)(F)C2)C2CC2)CC=CCCCCN(C)C(=O)[C@H](Cc2cc(F)ccc2-c2cnn(C3CCOC3)c2)N(C)C1=O (some centres unmarked) [Example 85] | 20 | 280 | 20 | 60 | 20 |  |  |  |
| CC(C)C[C@@H]1NC(=O)[C@@H](N(C)C(=O)[C@@H](NC(=O)[C@@H]2C[C@@H](F)CN2C(=O)C2(C(F)(F)F)CC(F)(F)C2)C2CC2)CC=CCCCCN(C)C(=O)[C@H](Cc2cc(F)ccc2-c2cnn(C3CC3)c2)N(C)C1=O [Example 86] | 20 | 250 | 20 | 60 | 20 |  |  |  |
| CC(C)C[C@@H]1NC(=O)[C@@H](N(C)C(=O)[C@@H](NC(=O)[C@@H]2C[C@@H](F)CN2C(=O)C2(C(F)(F)F)CC(F)(F)C2)C2CC2)CC=CCCCCN(C)C(=O)[C@H](Cc2cc(F)ccc2-c2cnn(S(C)(=O)=O)c2)N(C)C1=O [Example 87] | 60 | 890 | 50 | 180 | 20 |  |  |  |
| CC(C)C[C@@H]1NC(=O)[C@@H](N(C)C(=O)[C@@H](NC(=O)[C@@H]2C[C@@H](F)CN2C(=O)C2(C(F)(F)F)CC(F)(F)C2)C2CC2)CC=CCCCCNC(=O)[C@H](Cc2cc(Cl)ccc2C2=CCN(C(=O)C(C)(C)C)CC2)N(C)C1=O [Example 91] | 260 | 5730 | 230 | 100 | 20 |  |  |  |

From patent US20240408169A1 (priority 2023, published 2024)
